Patent publication US9566312B2, “Cyclic peptides and use as medicines” (priority 2012, dated 2017)
Starred links: 1 amine or outer side, 2 acyl side, 3 side chain; linkers in the order of their positions; H or OH if unused. Non-standard residues stand in square brackets, D forms with d. Residues, ends and D or L forms follow the SMILES beside them. X42 = C[C@H](CCCOC(=O)N(C)C1CCN(C)CC1)[C@@H](C(=O)[*:2])N(C)[*:1]; X64 = COC[C@@H]1CN(C[C@@H](C)[C@@H](C(=O)[*:2])N(C)[*:1])CCO1; X66 = C[C@H](COCC(=O)N1CCN(C)CC1)[C@@H](C(=O)[*:2])N(C)[*:1]; X1 = COC[C@@H]1CN(C[C@H](C)[C@@H](C(=O)[*:2])N(C)[*:1])CCO1; X40 = C[C@H](COCC(=O)N1CCNCC1)[C@@H](C(=O)[*:2])N(C)[*:1]; X52 = C[C@H](CCC(=O)N1CCOCC1)[C@@H](C(=O)[*:2])N(C)[*:1]; MeBmt = C/C=C/C[C@@H](C)[C@@H](O)[C@H](NC)C(=O)O; NMeL = CN[C@@H](CC(C)C)C(=O)O; NMeV = CN[C@H](C(=O)O)C(C)C; dNMeA = CN[C@H](C)C(=O)O; Abu = CC[C@H](N)C(=O)O

Columns and labels:
cyclophilin A (CypA) = cyclophilin A (CypA) (Homo sapiens (Human), UniProt P62937); assay: Inhibitor binding to cyclophilin proteins by SPR, CypA; parameters: unit not given here; conditions: 1:1 binding model
Chain of cyclophilin A (CypA) (P62937 whole entry): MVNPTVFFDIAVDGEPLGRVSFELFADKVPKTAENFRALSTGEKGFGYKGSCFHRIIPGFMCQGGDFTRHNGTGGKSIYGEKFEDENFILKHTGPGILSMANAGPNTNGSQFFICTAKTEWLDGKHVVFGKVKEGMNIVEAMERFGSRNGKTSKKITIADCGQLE

cyclophilin B (CypB) = cyclophilin B (CypB) (Homo sapiens (Human), UniProt P23284); assay: Inhibitor binding to cyclophilin proteins by SPR, CypB; parameters: unit not given here; conditions: 1:1 binding model
Chain of cyclophilin B (CypB) (P23284 34-216): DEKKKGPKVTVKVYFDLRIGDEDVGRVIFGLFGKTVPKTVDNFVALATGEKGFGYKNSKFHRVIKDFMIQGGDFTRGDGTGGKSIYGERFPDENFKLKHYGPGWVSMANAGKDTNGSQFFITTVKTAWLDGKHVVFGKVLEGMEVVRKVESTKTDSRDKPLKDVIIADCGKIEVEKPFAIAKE
Description: (§1) Method 1: Measuring Inhibitor Binding to Cyclophilin Proteins
(§2) Binding of inhibitors to expressed cyclophilins was determined using surface plasmon resonance (SPR) experiments. Briefly, avi-tagged cyclophilin proteins with mono-biotinylation were immobilized onto a Biotin CAPture chip (GE Healthcare, cat. #28920234). SPR experiments were carried out on an upgraded Biacore T200 system using a running buffer containing the inhibitor, 10 mM HEPES, pH 7.4, 150 mM NaCl, 0.05% P20, and 3% DMSO. Single-cycle kinetics measurements were used to study the interactions between cyclophilin inhibitors and different cyclophlins. Accordingly, compound at various concentrations was injected to the flow cells with a contact time of 1 min each at a flow rate of 50 μL/min. The final dissociation phase lasts for 10 min following the sample injection. Data was analyzed using Biacore T200 Evaluation Software Version 1.0 and a 1:1 binding model was applied to fit the data to obtain kon, koff, and KD.

CypF = CypF (Homo sapiens (Human), UniProt P30405); assay: Inhibitor binding to cyclophilin proteins by SPR, CypF; conditions: 1:1 binding model
Chain of CypF (P30405 30-207): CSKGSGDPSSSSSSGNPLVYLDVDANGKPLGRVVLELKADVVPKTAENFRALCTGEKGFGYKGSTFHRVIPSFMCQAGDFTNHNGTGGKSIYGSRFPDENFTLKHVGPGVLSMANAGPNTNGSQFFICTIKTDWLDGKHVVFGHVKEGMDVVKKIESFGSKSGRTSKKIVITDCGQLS
Description: as §1, §2

[1] = molecular target: organic anion transporting polypeptide 1B1 (OATP1B1) (Homo sapiens (Human), UniProt Q9Y6L6); assay: OATP assay in CHO-OATP1B1 cells;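 note: inhibition of probe substrate uptake into the cells, ten minutes exposure, accumulated substrate read by fluorescence once cells were lysed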
Chain of organic anion transporting polypeptide 1B1 (OATP1B1) (Q9Y6L6 whole entry): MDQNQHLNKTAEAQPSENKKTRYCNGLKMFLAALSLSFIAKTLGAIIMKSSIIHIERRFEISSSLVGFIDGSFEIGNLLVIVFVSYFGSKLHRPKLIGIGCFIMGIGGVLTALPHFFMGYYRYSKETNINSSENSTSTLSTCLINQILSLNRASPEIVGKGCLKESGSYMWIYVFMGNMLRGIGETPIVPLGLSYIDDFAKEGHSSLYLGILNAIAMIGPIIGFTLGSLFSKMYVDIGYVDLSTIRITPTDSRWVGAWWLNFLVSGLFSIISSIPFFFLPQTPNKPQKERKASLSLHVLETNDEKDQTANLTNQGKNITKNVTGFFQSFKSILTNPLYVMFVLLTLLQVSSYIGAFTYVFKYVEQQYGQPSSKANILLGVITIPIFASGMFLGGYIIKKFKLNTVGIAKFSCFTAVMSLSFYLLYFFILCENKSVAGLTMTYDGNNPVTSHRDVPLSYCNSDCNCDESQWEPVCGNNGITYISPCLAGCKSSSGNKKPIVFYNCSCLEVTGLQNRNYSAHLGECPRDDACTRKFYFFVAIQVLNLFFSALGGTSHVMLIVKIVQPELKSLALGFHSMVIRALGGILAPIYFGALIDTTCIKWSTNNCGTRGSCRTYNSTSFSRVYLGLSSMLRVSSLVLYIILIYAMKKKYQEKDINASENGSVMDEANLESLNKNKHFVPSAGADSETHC

[2] = test system: genotype 1b subgenomic HCV replicon in Huh7.5 cells; assay type: cell-based, hepatitis C virus; conditions: genotype 1b replicon, 72 h incubation; read-out: RPLN-1b IC50
Description: Method 2: Measuring Inhibitory Effects in a HCV Replicon System
Susceptibility to compounds was analyzed in Huh7.5 cells containing genotype 1a or 1b subgenomic HCV replicons co-expressing a luciferase reporter gene. The original replicons, pFK389lucubineo_3_3′_ET and pH/SG-Neo(L+I), were licensed from ReBlicon GmbH (Germany) and Apath LLC (Saint Louis, Mo.), respectively. The firefly reporter gen was replaced by renilla luciferase reporter gene using standard molecular biology techniques as follows.
Generation of genotype 1b subgenomic replicon: The renilla […]-neomycin phosphotransferase cassette was amplified from pF9 cytomegalovirus (CMV) hRluc-Neo Flexi(R) (Promega) by PCR using Accuprime super mix II (Invitrogen) and a primer set of Ascl hRlucNeo Fwd and NotI hRluc Rev. These two primers have the following sequences and introduce restriction sites for subsequent cloning: Ascl hRlucNeo Fwd, 5 […] 3(Ascl site underlined) (SEQ. ID No. 1), and NotI hRluc Rev, 5[…] 3(NotI site underlined) (SEQ ID No. 2). The amplification product was subcloned into pCR2.1-TOPO (Invitrogen). The resulting plasmid was digested with Ascl and NotI, and the excised fragment (hRluc-Neo) was ligated with the Roche Quick Ligation Kit (Roche) into pFK1389lucubineo_3_3′_ET digested with the same enzymes.
The assay medium for both, luciferase reporter HCV replicon and cytotoxicity assays contains phenol red-free DMEM and lacks G418. […] Luciferase activity of compound treated cells is measured relative to DMSO treated cells after 72 h incubation using Renilla-Glo™ Luciferase Assay (Promega). Cytotoxicity (CC50) is analyzed using Cell Titer-Glo™ (Promega).

[3] = test system: peripheral blood mononuclear cells (PBMC); assay: Anti-proliferative or immunosuppressive activity, BrdU incorporation in PHA-stimulated PBMC; assay type: cell-based; conditions: PHA 3 μg/ml, 60 hour compound treatment; read-out: EMV PBMC IC50
Description: Method 3: Measuring Anti-Proliferative or Immunosuppressive Activity
The potential anti-proliferative activity of compounds on T-cells was analyzed based on the amount of bromodesoxy uridine (BrdU) incorporated into DNA of fresh peripheral blood mononuclear cells (PBMC) using the BrdU ELISA kit (Roche). The assay is performed in 96-well plate format with 30,000 PBMCs seeded per well in X-VIVO 15 medium (Lonza). T-cell proliferation was stimulated by addition of 3 μg/ml phytohemagglutinin (PHA) in PBMCs obtained from two donors.

SMILES	CypA Kd (cyclophilin A (CypA))	CypB Kd (cyclophilin B (CypB))	CypF Kd (CypF) [nM]	IC50 [1] [nM]	IC50 [2] [nM]	IC50 [3] [nM]
C/C=C/C[C@@H](C)[C@@H](O)[C@H]1C(=O)N[C@@H](CC)C(=O)N(C)[C@H](C)C(=O)N(C)[C@@H]([C@H](C)CCC(=O)N2CCOCC2)C(=O)N[C@@H](C(C)C)C(=O)N(C)[C@@H](CC(C)C)C(=O)N[C@@H](C)C(=O)N[C@H](C)C(=O)N(C)[C@@H](CC(C)C)C(=O)N(C)[C@@H](CC(C)C)C(=O)N(C)[C@@H](C(C)C)C(=O)N1C [Compound 2.14.4, 3-[D-Ala]-4-[(2S,3R)-3-methyl-2-(methylamino)-6-morpholino-6-oxohexanoyl]-cyclosporin] (cyclo(A[dA][NMeL][NMeL][NMeV][MeBmt][Abu][dNMeA][X52]V[NMeL]))	2.1	1.5	1.1	4800	–	–
C/C=C/C[C@@H](C)[C@@H](O)[C@H]1C(=O)N[C@@H](CC)C(=O)N(C)[C@H](C)C(=O)N(C)[C@@H]([C@H](C)COCC(=O)N2CCNCC2)C(=O)N[C@@H](C(C)C)C(=O)N(C)[C@@H](CC(C)C)C(=O)N[C@@H](C)C(=O)N[C@H](C)C(=O)N(C)[C@@H](CC(C)C)C(=O)N(C)[C@@H](CC(C)C)C(=O)N(C)[C@@H](C(C)C)C(=O)N1C [Compound 2.6.1, 3-[D-Ala]-4-[(2S,3S)-3-methyl-2-(methylamino)-4-(2-oxo-2-(piperazin-1-yl)ethoxy)butanoyl]-cyclosporin] (cyclo(A[dA][NMeL][NMeL][NMeV][MeBmt][Abu][dNMeA][X40]V[NMeL]))	1.0	0.7	0.4	6900	–	–
C/C=C/C[C@@H](C)[C@@H](O)[C@H]1C(=O)N[C@@H](CC)C(=O)N(C)[C@H](C)C(=O)N(C)[C@@H]([C@H](C)CCCOC(=O)N(C)C2CCN(C)CC2)C(=O)N[C@@H](C(C)C)C(=O)N(C)[C@@H](CC(C)C)C(=O)N[C@@H](C)C(=O)N[C@H](C)C(=O)N(C)[C@@H](CC(C)C)C(=O)N(C)[C@@H](CC(C)C)C(=O)N(C)[C@@H](C(C)C)C(=O)N1C [Compound 2.19.9, 3-[D-Ala]-4-[(2S,3R)-3-methyl-6-((methyl(1-methylpiperidin-4-yl)carbamoyl)oxy)-2-(methylamino)hexanoyl]-cyclosporin] (cyclo(A[dA][NMeL][NMeL][NMeV][MeBmt][Abu][dNMeA][X42]V[NMeL]))	0.8	0.4	0.4	3700	–	–
C/C=C/C[C@@H](C)[C@@H](O)[C@H]1C(=O)N[C@@H](CC)C(=O)N(C)[C@H](CC)C(=O)N(C)[C@@H]([C@H](C)COC)C(=O)N[C@@H](C(C)C)C(=O)N(C)[C@@H](CC(C)C)C(=O)N[C@@H](C)C(=O)N[C@H](C)C(=O)N(C)[C@@H](CC(C)C)C(=O)N(C)[C@@H](CC(C)C)C(=O)N(C)[C@@H](C(C)C)C(=O)N1C [Compound 3.1, 3-[(R)-2-(methylamino)butanoic acid]-4-[(2S,3S)-4-methoxy-3-methyl-2-(methylamino)butanoyl]-cyclosporin]	3.4	1.6	1.9	2100	–	–
C/C=C/C[C@@H](C)[C@@H](O)[C@H]1C(=O)N[C@@H](CC)C(=O)N(C)[C@H](C)C(=O)N(C)[C@@H]([C@H](C)COCC(=O)N2CCN(C)CC2)C(=O)N[C@@H](C(C)C)C(=O)N(C)[C@@H](CC(C)C)C(=O)N[C@@H](C)C(=O)N[C@H](C)C(=O)N(C)[C@@H](CC(C)C)C(=O)N(C)[C@@H](CC(C)C)C(=O)N(C)[C@@H](C(C)C)C(=O)N1C [Compound 2.6.3, 3-[D-Ala]-4-[(2S,3S)-3-methyl-2-(methylamino)-4-(2-(4-methylpiperazin-1-yl)-2-oxoethoxy)butanoyl]-cyclosporin] (cyclo(A[dA][NMeL][NMeL][NMeV][MeBmt][Abu][dNMeA][X66]V[NMeL]))	1.5	0.8	0.5	9400	–	–
CCCC[C@@H](C)[C@@H](O)[C@H]1C(=O)N[C@@H](CC)C(=O)N(C)[C@H](C)C(=O)N(C)[C@@H]([C@H](C)COCCN2CCOCC2)C(=O)N[C@@H](C(C)C)C(=O)N(C)[C@@H](CC(C)C)C(=O)N[C@@H](C)C(=O)N[C@H](C)C(=O)N(C)[C@@H](CC(C)C)C(=O)N(C)[C@@H](CC(C)C)C(=O)N(C)[C@@H](C(C)C)C(=O)N1C [Compound 2.8.10, 1-dihydro-3-[D-Ala]-4-[(2S,3S)-3-methyl-2-(methylamino)-4-(2-morpholinoethoxy)butanoyl]-cyclosporin]	2.1	1.2	1.1	–	110	14500
C/C=C/C[C@@H](C)[C@@H](O)[C@H]1C(=O)N[C@@H](CC)C(=O)N(C)[C@H](C)C(=O)N(C)[C@@H]([C@H](C)COCCN2CC(OC)C2)C(=O)N[C@@H](C(C)C)C(=O)N(C)[C@@H](CC(C)C)C(=O)N[C@@H](C)C(=O)N[C@H](C)C(=O)N(C)[C@@H](CC(C)C)C(=O)N(C)[C@@H](CC(C)C)C(=O)N(C)[C@@H](C(C)C)C(=O)N1C [Compound 2.8.9, 3-[D-Ala]-4-[(2S,3S)-4-(2-(3-methoxyazetidin-1-yl)ethoxy)-3-methyl-2-(methylamino)butanoyl]-cyclosporin]	0.6	0.4	0.3	–	240	9100
C/C=C/C[C@@H](C)[C@@H](O)[C@H]1C(=O)N[C@@H](CC)C(=O)N(C)[C@H](C)C(=O)N(C)[C@@H]([C@H](C)COC(=O)N(C)C2CCN(C)CC2)C(=O)N[C@@H](C(C)C)C(=O)N(C)[C@@H](CC(C)C)C(=O)N[C@@H](C)C(=O)N[C@H](C)C(=O)N(C)[C@@H](CC(C)C)C(=O)N(C)[C@@H](CC(C)C)C(=O)N(C)[C@@H](C(C)C)C(=O)N1C [Compound 2.5.32, 3-[D-Ala]-4-[(2S,3S)-3-methyl-4-((methyl(1-methylpiperidin-4-yl)carbamoyl)oxy)-2-(methylamino)butanoyl]-cyclosporin]	0.7	0.5	0.4	–	150	9500
C/C=C/C[C@@H](C)[C@@H](O)[C@H]1C(=O)N[C@@H](CC)C(=O)N(C)[C@H](C)C(=O)N(C)[C@@H]([C@H](C)CN2CCO[C@H](COC)C2)C(=O)N[C@@H](C(C)C)C(=O)N(C)[C@@H](CC(C)C)C(=O)N[C@@H](C)C(=O)N[C@H](C)C(=O)N(C)[C@@H](CC(C)C)C(=O)N(C)[C@@H](CC(C)C)C(=O)N(C)[C@@H](C(C)C)C(=O)N1C [Compound 2.5.34, 3-[D-Ala]-4-[(2S,3R)-4-((S)-2-(methoxymethyl)morpholino)-3-methyl-2-(methylamino)butanoyl]-cyclosporin] (cyclo(A[dA][NMeL][NMeL][NMeV][MeBmt][Abu][dNMeA][X64]V[NMeL]))	1.3	0.6	0.6	–	27	19000
C/C=C/C[C@@H](C)[C@@H](O)[C@H]1C(=O)N[C@@H](CC)C(=O)N(C)[C@H](C)C(=O)N(C)[C@@H]([C@@H](C)CN2CCO[C@H](COC)C2)C(=O)N[C@@H](C(C)C)C(=O)N(C)[C@@H](CC(C)C)C(=O)N[C@@H](C)C(=O)N[C@H](C)C(=O)N(C)[C@@H](CC(C)C)C(=O)N(C)[C@@H](CC(C)C)C(=O)N(C)[C@@H](C(C)C)C(=O)N1C [Compound 2.17.11, 3-[D-Ala]-4-[(2S,3S)-4-((S)-2-(methoxymethyl)morpholino)-3-methyl-2-(methylamino)butanoyl]-cyclosporin] (cyclo(A[dA][NMeL][NMeL][NMeV][MeBmt][Abu][dNMeA][X1]V[NMeL]))	1.1	0.7	0.6	–	22	36400
